The target in one experiment is T1, BCAT2 (Homo sapiens, UniProt O15382).
T1 sequence (O15382 28-392): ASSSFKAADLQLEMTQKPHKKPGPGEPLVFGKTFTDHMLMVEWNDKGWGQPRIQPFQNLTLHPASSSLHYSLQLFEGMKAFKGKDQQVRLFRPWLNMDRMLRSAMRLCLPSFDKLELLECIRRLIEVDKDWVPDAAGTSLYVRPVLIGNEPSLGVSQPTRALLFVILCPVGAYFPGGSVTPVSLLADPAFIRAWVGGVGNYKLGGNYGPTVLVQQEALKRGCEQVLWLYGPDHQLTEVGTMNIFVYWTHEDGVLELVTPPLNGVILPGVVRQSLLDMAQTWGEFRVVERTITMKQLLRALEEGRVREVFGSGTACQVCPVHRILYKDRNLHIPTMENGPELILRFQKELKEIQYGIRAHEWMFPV
As to the kind of experiment: BCAT2 enzyme inhibition (human). It counts as biochemical. The protocol:
In further embodiments, the functional modulation of BCAT2 is assayed using a cell-free assay. In various embodiments, the cell-free assay is an enzyme-coupled fluorescent assay. For example, the disclosure contemplates use of an assay that monitors the production of L-glutamate from branch-chain amino acids and α-ketoglutarate through the coupling of hBCATm activity to two additional enzymes, L-Glutamate Oxidase (L-GOx) and Horseradish Peroxidase (HRP). Specifically, L-GOx catabolizes L-glutamate to generate α-ketoglutarate and […], the latter being utilized by HRP and leading to the formation of fluorescent resorufin from the redox-sensitive dye Amplex Red. In some embodiments, the test compound is classified as a candidate compound if a decrease in L-glutamate is measured. In further embodiments, the test compound is classified as a candidate compound if a decrease in α-ketoglutarate is measured.

The next experiment concerns the target T2, BCAT1 (Homo sapiens, UniProt P54687).
T2 sequence (P54687 1-386): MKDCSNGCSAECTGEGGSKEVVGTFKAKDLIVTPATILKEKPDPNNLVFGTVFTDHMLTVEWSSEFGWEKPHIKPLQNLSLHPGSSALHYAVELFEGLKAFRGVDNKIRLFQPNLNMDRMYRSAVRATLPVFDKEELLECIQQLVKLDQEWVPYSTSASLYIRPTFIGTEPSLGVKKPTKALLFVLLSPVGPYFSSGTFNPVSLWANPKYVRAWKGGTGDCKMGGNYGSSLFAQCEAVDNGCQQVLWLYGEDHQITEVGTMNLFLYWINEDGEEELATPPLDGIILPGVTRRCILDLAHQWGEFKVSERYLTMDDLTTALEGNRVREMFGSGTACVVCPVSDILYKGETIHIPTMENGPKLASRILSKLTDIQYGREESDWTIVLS
Description: BCAT1 enzyme inhibition (human), Glutamate Glo luminescence. It counts as biochemical. On the procedure: The BCAT1 inhibitory activity of selected compounds of the present disclosure were also evaluated. Compounds were prepared as up to 10 mM stock solutions generally using DMSO as the vehicle. 10-point dose response curves were generated using the Echo-550 (Labcyte) acoustic dispenser. Compound source plates ([…]) were made by serially diluting compound stocks to create 1 mM, 0.1 mM, and 0.01 mM solutions in DMSO into Echo certified LDV plates. The Echo then serially spotted 100% DMSO stock solutions into source dose response plates to generate a semi-log fold dilution scheme. 100% DMSO was added to the spotted dose response plates to bring the final volume to 5 μL, creating a 333× stock plate. 120 nL of the dose response stock plate was then spotted into the assay plate. 10 μL of assay buffer (50 mM Tris with 0.05% TWEEN-20) was then added to the plates resulting in a 4× working concentration in the assay plate. Final assay test concentration range was 3 μM to 0.0001 μM with a final DMSO concentration of 0.3%.
BCAT1 enzyme stock was first diluted to a 4× working concentration of 0.24 μg/mL in assay buffer (final assay concentration is 0.06 ug/ml). 10 μL of the 4×BCAT1 solution was then added to the previously prepared assay plate containing test compound or controls, and incubated at room temperature, protected from light, for either 10 or 60 minutes. After the compound incubation period, 20 μL of assay buffer plus 2× substrate is added to all wells (Final assay concentration of substrates is 300 μM L-leucine and 250 μM alpha-ketoglutaric acid). Enzyme reaction was then incubated for 10 minutes at room temperature. After the 10 minute incubation, the enzymatic reaction was halted with the addition of 5 μL of 0.6N HCl and incubated for 1 min. 5 μL of 1M Tris (pH 8.0) was then added to neutralize pH. 12.5 μL of the quenched assay volume was then transferred to a white, 384 well plate and 12.5 μL of Glutamate detection reagent was added (detection reagent prepared per Promega Glutamate Glo kit instructions). Plates were then incubated for 30 minutes at room temperature, protected from light. After glutamate detection incubation period, luminescence was read on BMG Novostar and relative light units was measured and exported for analysis.
Compound modulation of BCAT1 enzymatic activity was determined as follows. IC50 values were calculated in ActivityBase, using a 4-parameter fit equation. Data was normalized to maximum inhibition form the reference agent VS558CSA (at 10 μM). Relative light units were exported for analysis and % inhibition values for each well were calculated using the following formula: […]

The test system of a further experiment is GM00371 cells. As to the kind of experiment: Viability assay (Cell titer glo) in the 3-HIB assay. It is filed as cell-based, human. Particulars: read-out: 3HIB INHIBITION IC50 (μM) MEAN GM00371 cells Viablility Assay. On the procedure:
Cell Plating: Cells (Coriell Institute GM00371 cells) were plated (96-well clear bottom sterile plate; Greiner 655098) at 10,000 cells/0.1 mL in Eagle's minimum essential medium (EMEM)/15% FBS (Gibco 16000-044) with a Combi dispenser in a cell culture hood and incubated at 37° C. and 5% CO2 overnight.
Compound Dilution: Compound were prepared as 33.3× intermediate dilution in DMSO in 96 well round polystyrene plates. For 30 μM final maximum start with 30 μL of 10 mM in DMSO. 10-12 1:3 serial dilutions were prepared from left to right (20 μL+40 μL DMSO). A 10× secondary dilution was prepare in EMEM by taking 7.5 μL 33.3× and transfer to replicate 96 well round polystyrene plates and then adding 242.5 μL EMEM A 1× final dilution in EMEM was prepared by taking 50 μL 10× dilution and transferring to replicate 96 well polypropylene assay block (Costar 3956) and adding 450 μL EMEM A control was prepared for maximal compound inhibition by taking 20 μL 10 mM Reference Compound A and adding 40 μL DMSO for a concentration of 3.3 mM To 7.5 μL of the 3.3 mM Reference Compound A solution and added 242.5 μL EMEM to make a 100 μM solution. The subsequent Reference Compound A solution was diluted with EMEM to achieve a final concentration of 10 μM. The structure of Reference Compound A is:
A control was prepared for maximal compound toxicity by taking 7.5 μL Reference Compound B and 242.5 μL EMEM to make […]. 50 μL of that 100 μM Reference Compound B solution was combined with 450 μL EMEM to achieve a concentration of 30 μM. The structure of Reference Compound B is
Compound Treatment: Media was aspirated from the cells and 100 μL of D-PBS (ThermoFisher 14190144) was added and then removed. 100 μL of diluted compound was added to the cells in the place and the cells were incubated at 37° C. and 5% CO2 for 24 hours.
Viability Assay: To the cells remaining in the plate 25 μL D-PBS and 25 μL Cell titer glo reagent (Promega G7572). The plate was placed on a shaker for 2 minutes, incubated at room temperature in the dark and then read on a Clariostar microplate reader.
Background: ATP-based viability assays read luminescence as a measure of living cells.

SMILES strings stand for the structures. Where two headings read alike, the source gives them in different places. Where only a bound is given, the exact number is not on record here.

`CNC(=O)c1ccc2c(c1)nc(-c1ccccn1)n2[C@H]1CCC[C@@H](NC(=O)c2sc(Cl)cc2OC)C1` [Compound 243]: the half-maximal inhibitory concentration (IC50) at BCAT2 was 0.1 to 0.5 µM; against BCAT1, ≥ 1 µM.

In the case of `CNC(=O)c1cc2nc(-c3c(F)ccc(F)c3O)n([C@H]3CCC[C@@H](NC(=O)c4ccc(Cl)s4)C3)c2cc1F` [Compound 231], the 50% inhibitory concentration (IC50) on BCAT2 was < 0.1 µM; against BCAT1, ≥ 1 µM. On to `CNC(=O)c1ccc2c(c1)nc(-c1c(O)ccc(F)c1F)n2[C@H]1CCC[C@@H](NC(=O)c2ccc(Br)s2)C1` [Compound 180], for which the values for the IC50 at BCAT2 and at BCAT1 were < 0.1 µM and 0.5 to 1 µM, respectively. Regarding `CNC(=O)c1ccc2c(c1)nc(-c1ccccn1)n2[C@H]1CCC[C@@H](NC(=O)c2sc(Br)cc2F)C1` [Compound 241], the results for the IC50 against BCAT2 and against BCAT1 were < 0.1 µM and ≥ 1 µM, respectively. As to `CNC(=O)c1ccc2c(c1)nc(-c1ccccc1C#N)n2[C@H]1CCC[C@@H](C(=O)Nc2ccccc2)C1` [Compound 203], the half-inhibitory concentration (IC50) is > 1 µM against BCAT2 and ≥ 1 µM against BCAT1. In the same order, the values of `O=C(N[C@@H]1CCC[C@H](n2c(-c3ccccn3)nc3ccncc32)C1)c1ccc(Br)s1` [Compound 294] are 0.1 to 0.5 µM and ≥ 1 µM.

Turning to `CNC(=O)c1ccc2c(c1)nc(-c1cccc(F)c1)n2C1CCCN(C(=O)Nc2ccccc2Cl)C1` (centres unmarked) [Compound 227], the results for the IC50 against BCAT2 and on BCAT1 were > 1 µM and ≥ 1 µM, respectively. In the same order, the values of `N#Cc1ccc2c(c1)nc(-c1ccccn1)n2[C@H]1CCC[C@@H](NC(=O)c2ccc(Br)s2)C1` [Compound 194] are < 0.1 µM and ≥ 1 µM. In the same order, the values of `CNC(=O)c1cc2nc(-c3c(F)ccc(F)c3O)n([C@H]3CCC[C@@H](NC(=O)c4ccc(C#N)s4)C3)c2cc1F` [Compound 232] are < 0.1 µM and ≥ 1 µM. For `N#Cc1ccc2c(c1)nc(-c1ccccn1)n2[C@H]1CCC[C@@H](NC(=O)c2ccc(Cl)s2)C1` [Compound 195] the same measures were < 0.1 µM and ≥ 1 µM.

For the molecule `O=C(N[C@@H]1CCC[C@H](n2c(-c3ccccn3)nc3cnc(F)cc32)C1)c1ccc(Cl)s1` [Compound 288], the IC50 against BCAT2 is 0.1 to 0.5 µM; on BCAT1, ≥ 1 µM. As for `CNC(=O)c1ccc2c(c1)nc(-c1ccccn1)n2[C@@H]1CCC[C@@H](NC(=O)c2ccc(Br)s2)C1` [Compound 101], the IC50 on BCAT1 was ≥ 1 µM. Regarding `O=C(N[C@H]1CCC[C@@H](n2c(-c3ccccn3)nc3cc(CO)ccc32)C1)c1cccs1` [Compound 118], the IC50 against BCAT2 is > 1 µM; in the experiment on GM00371 cells (Homo sapiens, 24 h), ≥ 1 µM. In the same order, the values of `CNC(=O)c1ccc2c(c1)nc(-c1ccccn1)n2[C@@H]1CCC[C@H](NC(=O)c2ccc(C(C)=O)s2)C1` [Compound 121] are > 1 µM and ≥ 1 µM. For `CNC(=O)c1cc2nc(-c3ccccc3F)n([C@H]3CCC[C@@H](NC(=O)c4ccc(Cl)s4)C3)c2cc1OC` [Compound 212] the same measures were < 0.1 µM and < 0.1 µM.

Take `CNC(=O)c1ccc2c(c1)nc(-c1cccc(F)n1)n2[C@H]1CCC[C@@H](NC(=O)c2ccc(Br)s2)C1` [Compound 216]: the IC50 against BCAT2 is < 0.1 µM; in the experiment on GM00371 cells (Homo sapiens, 24 h) it was ≥ 1 µM. As to `C=CC(=O)N[C@H]1CCC[C@@H](n2c(-c3ccccn3)nc3cc(C(=O)NC)ccc32)C1` [Compound 106], the IC50 is > 1 µM against BCAT2 and ≥ 1 µM in the experiment on GM00371 cells (Homo sapiens, 24 h). In the same order, the values of `CNC(=O)c1ccc2c(c1)nc(-c1ccccn1)n2[C@H]1CCC[C@@H](NC(=O)c2ccc(C(C)C)s2)C1` [Compound 146] are > 1 µM and ≥ 1 µM. For `CNC(=O)c1ccc2c(C3CCCC(NC(=O)c4ccc(Br)s4)C3)c(-c3ccccc3)[nH]c2c1` (centres unmarked) [Compound 283, 3-(3-(5-bromothiophene-2-carboxamido)cyclohexyl)-N-methyl-2 phenyl-1H-indole-6-carboxamide] the same measures were > 1 µM and ≥ 1 µM. In the same order, the values of `CNC(=O)c1ccc2c(c1)nc(-c1ccccn1)n2[C@@H]1CCC[C@H](NC(=O)c2ccc(C(=O)OC)s2)C1` [Compound 122] are > 1 µM and ≥ 1 µM. Turning to `CNC(=O)c1ccc2c(c1)nc(-c1c(F)cccc1F)n2[C@H]1CCC[C@@H](NC(=O)c2ccc(Br)s2)C1` [Compound 215], the IC50 against BCAT2 is < 0.1 µM; in the experiment on GM00371 cells (24 hours), 0.1 to 0.5 µM. `CNC(=O)c1ccc2c(c1)nc(-c1ccccn1)n2[C@@H]1CCC[C@H](NC(=O)c2ccc(-c3ccccc3)s2)C1` [Compound 111]: the IC50 was > 1 µM against BCAT2 and ≥ 1 µM in the experiment on GM00371 cells (Homo sapiens, 24 h). For `CNC(=O)c1cc2nc(-c3cccc(F)c3O)n([C@H]3CCC[C@@H](NC(=O)c4ccc(Br)s4)C3)c2cc1F` [Compound 209] the same measures were < 0.1 µM and 0.1 to 0.5 µM. For `CNC(=O)c1cc2nc(-c3ccccc3F)n([C@H]3CCC[C@@H](NC(=O)c4ccc(Br)s4)C3)c2cc1OC` [Compound 213] the same measures were < 0.1 µM and < 0.1 µM.

As usually defined, the IC50 is the concentration that inhibits the measured activity by half.
